From ChEMBL document CHEMBL4699665, “Discovery of ANT3310, a Novel Broad-Spectrum Serine β-Lactamase Inhibitor of the Diazabicyclooctane Class, Which Strongly Potentiates Meropenem Activity against Carbapenem-Resistant Enterobacterales and Acinetobacter baumannii” (J Med Chem, 2020)
Converted amounts (≈) assume the structure as drawn.

Tests used:
[1] = Inhibition of bacteria beta lactamase OXA-23 assessed as decrease in enzyme activity using nitrocefin as substrate preincubated for 10 mins followed by substrate addition measured for 10 mins by fluorescence plate reader analysis
Klebsiella pneumoniae [2] = test: Potentiation of meropenem-induced antibacterial activity against Klebsiella pneumoniae expressing TEM-OSBL/CTX-M-14/OXA-48 assessed as meropenem MIC at 4 ug/ml by broth microdilution method (reference value: 16 ug/ml); assay type: functional; conditions: dose 4 µg/ml
Acinetobacter baumannii [3] = test: Potentiation of meropenem-induced antibacterial activity against Acinetobacter baumannii expressing OXA-23 assessed as meropenem MIC at 4 ug/ml by broth microdilution method (reference value: 32 ug/ml); assay type: functional; conditions: dose 4 µg/ml
Klebsiella pneumoniae [4] = test: Potentiation of meropenem-induced antibacterial activity against Klebsiella pneumoniae expressing TEM-1/SHV-11/KPC-3 assessed as meropenem MIC at 4 ug/ml by broth microdilution method (reference value: 128 ug/ml); assay type: functional; conditions: dose 4 µg/ml
Klebsiella pneumoniae [5] = test: Potentiation of meropenem-induced antibacterial activity against Klebsiella pneumoniae expressing SHV-11/OXA-121 assessed as meropenem MIC at 4 ug/ml by broth microdilution method (reference value: 16 ug/ml); assay type: functional; conditions: dose 4 µg/ml
[6] = Inhibition of beta lactamase KPC-2 in Enterobacter cloacae assessed as decrease in enzyme activity using nitrocefin as substrate preincubated for 10 mins followed by substrate addition measured for 10 mins by fluorescence plate reader analysis
[7] = Inhibition of beta lactamase CTXM-15 in Enterobacter cloacae assessed as decrease in enzyme activity using nitrocefin as substrate preincubated for 10 mins followed by substrate addition measured for 10 mins by fluorescence plate reader analysis
[8] = Inhibition of beta lactamase OXA-48 in Enterobacter cloacae assessed as decrease in enzyme activity using nitrocefin as substrate preincubated for 10 mins followed by substrate addition measured for 10 mins by fluorescence plate reader analysis
Enterobacter cloacae [9] = test: Potentiation of meropenem-induced antibacterial activity against Enterobacter cloacae expressing TEM-1/KPC-2 assessed as meropenem MIC at 4 ug/ml by broth microdilution method (reference value: 8 ug/ml); assay type: functional; conditions: dose 4 µg/ml
[10] = Inhibition of beta lactamase TEM-1 in Enterobacter cloacae assessed as decrease in enzyme activity using nitrocefin as substrate preincubated for 10 mins followed by substrate addition measured for 10 mins by fluorescence plate reader analysis
[11] = Inhibition of beta lactamase AmpC in Enterobacter cloacae assessed as decrease in enzyme activity using nitrocefin as substrate preincubated for 10 mins followed by substrate addition measured for 10 mins by fluorescence plate reader analysis
Enterobacter cloacae [12] = test: Antibacterial activity against Enterobacter cloacae expressing TEM-1/KPC-2 by broth microdilution method; assay type: functional
Acinetobacter baumannii [13] = test: Antibacterial activity against Acinetobacter baumannii expressing OXA-23 by broth microdilution method; assay type: functional
Klebsiella pneumoniae [14] = test: Antibacterial activity against Klebsiella pneumoniae expressing TEM-1/SHV-11/KPC-3 by broth microdilution method; assay type: functional
Klebsiella pneumoniae [15] = test: Antibacterial activity against Klebsiella pneumoniae expressing SHV-11/OXA-181 by broth microdilution method; assay type: functional
Klebsiella pneumoniae [16] = test: Antibacterial activity against Klebsiella pneumoniae expressing TEM-OSBL/CTX-M-14/OXA-48 by broth microdilution method; assay type: functional
Enterobacter [17] = test: Inhibition of beta lactamase KPC in carbapenem-resistant Enterobacter assessed as meropenem minimum concentration required for antibacterial activity at 4 ug/ml by broth microdilution method (reference value: 4 ug/ml); conditions: dose 4.0 µg/ml
Enterobacter [18] = test: Inhibition of beta lactamase KPC in carbapenem-resistant Enterobacter assessed as meropenem maximum concentration required for antibacterial activity at 4 ug/ml by broth microdilution method (Rvb >32 ug/ml); conditions: dose 4.0 µg/ml
Acinetobacter baumannii [19] = test: Inhibition of beta lactamase OXA in carbapenem-resistant Acinetobacter baumannii assessed as meropenem maximum concentration required for antibacterial activity at 4 ug/ml by broth microdilution method (Rvb > 32 ug/ml); conditions: dose 4.0 µg/ml
Enterobacter [20] = test: Inhibition of beta lactamase KPC in carbapenem-resistant Enterobacter assessed as meropenem-induced antibacterial activity by measuring meropenem MIC50 at 4 ug/ml by broth microdilution method (Rvb >32 ug/ml); conditions: dose 4.0 µg/ml
Acinetobacter baumannii [21] = test: Inhibition of beta lactamase OXA in carbapenem-resistant Acinetobacter baumannii assessed as meropenem-induced antibacterial activity by measuring meropenem MIC50 at 4 ug/ml by broth microdilution method (Rvb > 32 ug/ml); conditions: dose 4.0 µg/ml
Enterobacter [22] = test: Inhibition of beta lactamase OXA in carbapenem-resistant Enterobacter assessed as meropenem maximum concentration required for antibacterial activity at 4 ug/ml by broth microdilution method (Rvb > 32 ug/ml); conditions: dose 4.0 µg/ml
Enterobacter [23] = test: Inhibition of beta lactamase KPC in carbapenem-resistant Enterobacter assessed as meropenem-induced antibacterial activity by measuring meropenem MIC90 at 4 ug/ml by broth microdilution method (Rvb >32 ug/ml); conditions: dose 4.0 µg/ml
Enterobacter [24] = test: Inhibition of beta lactamase OXA in carbapenem-resistant Enterobacter assessed as meropenem-induced antibacterial activity by measuring meropenem MIC50 at 4 ug/ml by broth microdilution method (reference value: 16 ug/ml); conditions: dose 4.0 µg/ml
Enterobacter [25] = test: Inhibition of beta lactamase OXA in carbapenem-resistant Enterobacter assessed as meropenem-induced antibacterial activity by measuring meropenem MIC 90 at 4 ug/ml by broth microdilution method (Rvb >32 ug/ml); conditions: dose 4.0 µg/ml
Acinetobacter baumannii [26] = test: Inhibition of beta lactamase OXA in carbapenem-resistant Acinetobacter baumannii assessed as meropenem-induced antibacterial activity by measuring meropenem MIC90 at 4 ug/ml by broth microdilution method (Rvb > 32 ug/ml); conditions: dose 4.0 µg/ml
Enterobacter [27] = test: Inhibition of beta lactamase OXA in carbapenem-resistant Enterobacter assessed as meropenem minimum concentration required for antibacterial activity at 4 ug/ml by broth microdilution method (reference value: 2 ug/ml); conditions: dose 4.0 µg/ml
Acinetobacter baumannii [28] = test: Inhibition of beta lactamase OXA in carbapenem-resistant Acinetobacter baumannii assessed as meropenem minimum concentration required for antibacterial activity at 4 ug/ml by broth microdilution method (reference value: 8 ug/ml); conditions: dose 4.0 µg/ml
[29] = Volume of distribution in rat at 1 mg/kg, iv; assay type: ADME, organism-based; conditions: in vivo
[30] = Clearance in rat at 1 mg/kg, iv; assay type: ADME, organism-based; conditions: in vivo
[31] = Half life in rat at 1 mg/kg, iv; assay type: ADME, organism-based; conditions: in vivo
[32] = AUC in rat at 1 mg/kg, iv; assay type: ADME, organism-based; parameters: dose 1 mg/kg; conditions: in vivo

SMILES | IC50 [1] | MIC (Klebsiella pneumoniae [2]) | MIC (Acinetobacter baumannii [3]) | MIC (Klebsiella pneumoniae [4]) | MIC (Klebsiella pneumoniae [5]) | IC50 [6] | IC50 [7] | IC50 [8] | MIC (Enterobacter cloacae [9]) | IC50 [10] | IC50 [11] | other results
O=C1N2C[C@@H](CC[C@H]2SC(F)(F)F)N1OS(=O)(=O)[O-].[Na+] | 1320 nM | 8 µg/mL | 32 µg/mL | 4 µg/mL | 8 µg/mL | 2 nM | 10 nM | 99 nM | 0.03 µg/mL | 26 nM | 2 nM | –
O=C1N2C[C@@H](CC[C@H]2CCl)N1OS(=O)(=O)[O-].[Na+] | > 3000 nM | 8 µg/mL | 32 µg/mL | 2 µg/mL | 16 µg/mL | 28 nM | 84 nM | 443 nM | 0.06 µg/mL | 135 nM | 26 nM | –
O=C1N2C[C@@H](CC[C@H]2C(Cl)Cl)N1OS(=O)(=O)[O-].[Na+] | 1680 nM | 16 µg/mL | 32 µg/mL | 2 µg/mL | 16 µg/mL | 4 nM | 178 nM | 178 nM | 0.06 µg/mL | 403 nM | 52 nM | –
O=C(NNC(=O)[C@@H]1CC[C@@H]2CN1C(=O)N2OS(=O)(=O)O)[C@@H]1CCCNC1 [ZIDEBACTAM] | – | – | – | – | – | – | – | – | – | – | – | MIC (Enterobacter cloacae [12]): 0.5 µg/mL (≈ 1.28 µM); MIC (Acinetobacter baumannii [13]): > 128 µg/mL; MIC (Klebsiella pneumoniae [14]): 2 µg/mL (≈ 5.11 µM); MIC (Klebsiella pneumoniae [15]): 2 µg/mL (≈ 5.11 µM); MIC (Klebsiella pneumoniae [16]): 0.25 µg/mL (≈ 0.639 µM)
N#C[C@@H]1CC[C@@H]2CN1C(=O)N2OS(=O)(=O)[O-].[Na+] | 59 nM | 0.06 µg/mL | 4 µg/mL | 0.5 µg/mL | 0.25 µg/mL | 8 nM | 4 nM | 2 nM | 0.06 µg/mL | 67 nM | 3 nM | MIC (Enterobacter [17]): < 0.03 µg/mL; Activity (Enterobacter [18]): 16 µg/mL; Activity (Acinetobacter baumannii [19]): > 32 µg/mL; MIC50 (Enterobacter [20]): 0.06 µg/mL; MIC50 (Acinetobacter baumannii [21]): 16 µg/mL; Activity (Enterobacter [22]): 0.5 µg/mL; MIC90 (Enterobacter [23]): 1 µg/mL; MIC50 (Enterobacter [24]): 0.12 µg/mL; MIC90 (Enterobacter [25]): 0.25 µg/mL; MIC90 (Acinetobacter baumannii [26]): 32 µg/mL; MIC (Enterobacter [27]): < 0.03 µg/mL; MIC (Acinetobacter baumannii [28]): 0.25 µg/mL
CC(F)(F)[C@@H]1CC[C@@H]2CN1C(=O)N2OS(=O)(=O)[O-].[Na+] | > 3000 nM | 8 µg/mL | 32 µg/mL | 2 µg/mL | 16 µg/mL | 43 nM | 200 nM | 169 nM | 0.06 µg/mL | 267 nM | 313 nM | –
NC(=O)[C@@H]1CC[C@@H]2CN1C(=O)N2OS(=O)(=O)O [AVIBACTAM] | > 3000 nM | 0.5 µg/mL | 16 µg/mL | 0.25 µg/mL | 1 µg/mL | 8 nM | 1 nM | 252 nM | 0.03 µg/mL | 5 nM | 8 nM | Vd [29]: 1.9 L/kg; clearance [30]: 59 mL/min/kg; MIC (Enterobacter cloacae [12]): 16 µg/mL (≈ 60.3 µM); MIC (Acinetobacter baumannii [13]): > 128 µg/mL; MIC (Klebsiella pneumoniae [14]): 16 µg/mL (≈ 60.3 µM); half-life [31]: 22.2 min; MIC (Klebsiella pneumoniae [15]): 32 µg/mL (≈ 121 µM); MIC (Klebsiella pneumoniae [16]): 16 µg/mL (≈ 60.3 µM); AUC [32]: 279 ng·h/mL
O=C1N2C[C@@H](CC[C@H]2C(F)(F)c2nccs2)N1OS(=O)(=O)[O-].[Na+] | > 3000 nM | 16 µg/mL | 32 µg/mL | 8 µg/mL | 16 µg/mL | 3 nM | 19 nM | 1110 nM | 0.125 µg/mL | 216 nM | 1 nM | –

More lines, main results first:

IC50 [1] | MIC (Klebsiella pneumoniae [2]) | MIC (Acinetobacter baumannii [3]) | MIC (Klebsiella pneumoniae [4]) | MIC (Klebsiella pneumoniae [5]) | IC50 [6] | IC50 [7] | IC50 [8] | MIC (Enterobacter cloacae [9]) | IC50 [10] | IC50 [11] | SMILES | other results
810 nM | 2 µg/mL | 16 µg/mL | 2 µg/mL | 2 µg/mL | 6 nM | 10 nM | 19 nM | 0.06 µg/mL | 810 nM | 4 nM | O=C1N2C[C@@H](CC[C@H]2C(F)(F)F)N1OS(=O)(=O)[O-].[Na+] | –
> 3000 nM | 8 µg/mL | 32 µg/mL | 32 µg/mL | 16 µg/mL | 13 nM | 11 nM | 15 nM | 0.25 µg/mL | 117 nM | 23 nM | O=C1N2C[C@@H](CC[C@H]2COC(F)(F)F)N1OS(=O)(=O)[O-].[Na+] | –
– | 8 µg/mL | 32 µg/mL | 8 µg/mL | 16 µg/mL | 15 nM | 2 nM | 15 nM | 0.06 µg/mL | 1 nM | < 1 nM | O=C1N2C[C@@H](CC[C@H]2S(=O)(=O)C(F)(F)F)N1OS(=O)(=O)[O-].[Na+] | –
> 3000 nM | 4 µg/mL | 32 µg/mL | 64 µg/mL | 8 µg/mL | > 3000 nM | 1200 nM | 1340 nM | 2 µg/mL | 511 nM | > 3000 nM | O=C1N2CCC[C@H](C2)N1OS(=O)(=O)[O-].[Na+] | –
– | 4 µg/mL | 32 µg/mL | 64 µg/mL | 4 µg/mL | 31 nM | 8 nM | 269 nM | 0.06 µg/mL | 1 nM | 4 nM | O=C1N2C[C@@H](CC[C@H]2Cl)N1OS(=O)(=O)[O-].[Na+] | –
> 3000 nM | 1 µg/mL | 32 µg/mL | 2 µg/mL | 1 µg/mL | 51 nM | 119 nM | 154 nM | 0.125 µg/mL | 492 nM | 304 nM | O=C1N2C[C@@H](CC[C@H]2CF)N1OS(=O)(=O)[O-].[Na+] | –
1600 nM | 2 µg/mL | 16 µg/mL | 1 µg/mL | 1 µg/mL | 7 nM | 17 nM | 64 nM | 0.06 µg/mL | 208 nM | 35 nM | O=C1N2C[C@@H](CC[C@H]2C(F)F)N1OS(=O)(=O)[O-].[Na+] | –
